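A five-concentration, 48-hour dose response in 96-well plates underlies each endpoint, interpolated linearly between surrounding concentrations. GI50: concentration for 50% inhibition of growth.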 The source made the active and inactive calls. Cut-off read from the data, not from the text of the source: active = GI50 up to about 1.1 µM and inactive = higher.
Assays:
Test in all cases: NCI-60 cell line screen, 48 h
SF-268 = test system: SF-268
SR = test system: SR
NCI-H522 = test system: NCI-H522
U-251 = test system: U-251
ACHN = test system: ACHN
HOP-92 = test system: HOP-92
HCC 2998 = test system: HCC 2998
HT-29 = test system: HT-29
SK-OV-3 = test system: SK-OV-3
Malme-3M = test system: Malme-3M
K562 = test system: K562
SF-295 = test system: SF-295
OVCAR-8 = test system: OVCAR-8
OVCAR-4 = test system: OVCAR-4
IGROV-1 = test system: IGROV-1
CCRF-CEM = test system: CCRF-CEM
LOX IMVI = test system: LOX IMVI
NCI-H23 = test system: NCI-H23
MCF7 = test system: MCF7
MDA-MB-231 = test system: MDA-MB-231

Row | SMILES | GI50 (SF-268) | GI50 (SR) | GI50 (NCI-H522) | GI50 (U-251) | GI50 (ACHN) | GI50 (HOP-92) | GI50 (HCC 2998) | GI50 (HT-29) | GI50 (SK-OV-3) | GI50 (Malme-3M) | GI50 (K562) | GI50 (SF-295) | GI50 (OVCAR-8) | GI50 (OVCAR-4) | GI50 (IGROV-1) | GI50 (CCRF-CEM) | GI50 (LOX IMVI) | GI50 (NCI-H23) | GI50 (MCF7) | GI50 (MDA-MB-231)
1 | O=C(O)c1cc2c3ccccc3nc-2c[nH]1 | > 100 µM (inactive) | > 100 µM (inactive) | > 100 µM (inactive) | > 100 µM (inactive) | > 100 µM (inactive) | > 100 µM (inactive) | > 100 µM (inactive) | > 100 µM (inactive) | > 100 µM (inactive) | > 100 µM (inactive) | > 100 µM (inactive) | > 100 µM (inactive) | > 100 µM (inactive) | > 100 µM (inactive) | > 100 µM (inactive) | > 100 µM (inactive) | > 100 µM (inactive) | > 100 µM (inactive) |  | 
2 | COc1c(C(CC(C)C)OC(C)=O)ccc2c1C(=O)OCc1cc(C)cc(O)c1O2 (stereo not drawn) | 14.3 µM (inactive) | > 100 µM (inactive) | 13.2 µM (inactive) | 14.9 µM (inactive) | 10.5 µM (inactive) | 11.9 µM (inactive) | 12.8 µM (inactive) | 17.8 µM (inactive) | 15.8 µM (inactive) | 16.1 µM (inactive) | > 100 µM (inactive) | 14.4 µM (inactive) | 16.7 µM (inactive) | 13.9 µM (inactive) | 16.6 µM (inactive) | > 100 µM (inactive) | 12.6 µM (inactive) | 10.3 µM (inactive) | 11.8 µM (inactive) | 
3 | C=C(C)CNCCN | > 100 µM (inactive) | > 100 µM (inactive) | > 100 µM (inactive) | > 100 µM (inactive) | > 100 µM (inactive) | > 100 µM (inactive) |  | > 100 µM (inactive) |  | > 100 µM (inactive) | > 100 µM (inactive) | > 100 µM (inactive) | > 100 µM (inactive) | > 100 µM (inactive) | > 100 µM (inactive) | > 100 µM (inactive) | > 100 µM (inactive) | > 100 µM (inactive) |  | > 100 µM (inactive)
4 | O=C1OC(=O)C2C1C1C(c3ccccc3)=C(c3ccccc3)C2(O)C2C(=O)OC(=O)C12 (stereo not drawn) | > 100 µM (inactive) | 78.5 µM (inactive) | 68.7 µM (inactive) | 52.1 µM (inactive) | > 100 µM (inactive) | 65.6 µM (inactive) | > 100 µM (inactive) | 46.9 µM (inactive) | > 100 µM (inactive) | > 100 µM (inactive) | 45.1 µM (inactive) | > 100 µM (inactive) | 63.8 µM (inactive) | > 100 µM (inactive) | > 100 µM (inactive) | 37.5 µM (inactive) |  | 65.3 µM (inactive) |  | 
5 | C[C@H](CO)C1=CC(C#C[Si](C)(C)C)N(C(=O)Oc2ccccc2)c2ccccc21 (stereo partly drawn) | 13.3 µM (inactive) | 3.4 µM (inactive) | 3.94 µM (inactive) | 14.6 µM (inactive) | 13.8 µM (inactive) | 12.9 µM (inactive) | 10.6 µM (inactive) | 4.92 µM (inactive) | 11.6 µM (inactive) |  | 4.54 µM (inactive) | 3.86 µM (inactive) | 17.7 µM (inactive) | 7.1 µM (inactive) | 12.4 µM (inactive) | 10.9 µM (inactive) | 15.7 µM (inactive) | 4.29 µM (inactive) |  | 10.3 µM (inactive)
6 | CC(C)(C)/C(O)=C\c1nc2cc(C(F)(F)F)ccc2[nH]c1=O | > 100 µM (inactive) | > 10 µM (inactive) | > 100 µM (inactive) | > 100 µM (inactive) | > 100 µM (inactive) | > 100 µM (inactive) |  | 47.5 µM (inactive) | > 100 µM (inactive) | > 100 µM (inactive) | 27.9 µM (inactive) | > 100 µM (inactive) | > 100 µM (inactive) | > 100 µM (inactive) | > 100 µM (inactive) | 13.3 µM (inactive) | > 100 µM (inactive) | > 100 µM (inactive) |  | > 100 µM (inactive)
7 | CCc1nn(S(=O)(=O)c2ccc(C)cc2)c2c1CS(=O)(=O)CC2 | 37.1 µM (inactive) |  |  | > 100 µM (inactive) | > 100 µM (inactive) |  |  | > 100 µM (inactive) | 69.3 µM (inactive) |  | > 100 µM (inactive) | 66.8 µM (inactive) | 34.9 µM (inactive) | > 100 µM (inactive) |  |  |  | > 100 µM (inactive) | > 100 µM (inactive) | > 100 µM (inactive)
8 | Cc1ccc(NC(=O)CC/C(CC(=O)C(C)(C)C)=N/NC(=O)C(N)=O)cc1C | > 100 µM (inactive) | > 100 µM (inactive) | > 100 µM (inactive) | > 100 µM (inactive) | > 100 µM (inactive) | > 100 µM (inactive) | > 100 µM (inactive) | > 100 µM (inactive) | > 100 µM (inactive) | > 100 µM (inactive) | > 100 µM (inactive) | > 100 µM (inactive) | > 100 µM (inactive) | > 100 µM (inactive) | > 100 µM (inactive) | > 100 µM (inactive) |  | > 100 µM (inactive) |  | 
9 | S=C1SCN(Cc2ccco2)CN1c1ccc(Br)cc1 | 13.2 µM (inactive) | 7.6 µM (inactive) | 10.3 µM (inactive) | 21.9 µM (inactive) | 16 µM (inactive) | 20 µM (inactive) | 14.5 µM (inactive) | 13.8 µM (inactive) | 25.1 µM (inactive) | 17.4 µM (inactive) | 2.45 µM (inactive) | 6.98 µM (inactive) | 23.3 µM (inactive) | 13.9 µM (inactive) | 16.4 µM (inactive) | 16.4 µM (inactive) | 1.72 µM (inactive) | 14.7 µM (inactive) | 14.6 µM (inactive) | 
10 | Fc1ccc(F)c(/C=N/C23CC4CC(CC(C4)C2)C3)c1 | > 10 µM (inactive) | > 10 µM (inactive) | > 10 µM (inactive) | > 10 µM (inactive) | > 10 µM (inactive) | > 10 µM (inactive) | > 10 µM (inactive) | > 10 µM (inactive) | > 10 µM (inactive) | > 10 µM (inactive) | 4.44 µM (inactive) | > 10 µM (inactive) | > 10 µM (inactive) | > 10 µM (inactive) | > 10 µM (inactive) | 5.13 µM (inactive) | > 10 µM (inactive) | > 10 µM (inactive) | > 10 µM (inactive) | 
11 | COC(=O)C1=C(C(=O)OC)C2(C(=O)OC)OC1(OC)C(C1(C(=O)OC)C(C(=O)OC)=C1C(=O)OC)=C2C(=O)OC (stereo not drawn) | > 100 µM (inactive) | > 100 µM (inactive) | > 100 µM (inactive) | > 100 µM (inactive) | > 100 µM (inactive) | > 100 µM (inactive) | > 100 µM (inactive) | > 100 µM (inactive) | > 100 µM (inactive) | > 100 µM (inactive) | > 100 µM (inactive) | > 100 µM (inactive) | > 100 µM (inactive) |  | > 100 µM (inactive) | > 100 µM (inactive) | > 100 µM (inactive) | > 100 µM (inactive) |  | 
12 | COC(=O)C1=Cc2cn(S(=O)(=O)c3ccc(C)cc3)c3cccc(c23)C(C=C(C)C)N1C(C)=O (stereo not drawn) | 93.5 µM (inactive) | 12.4 µM (inactive) | 5.83 µM (inactive) | 45.6 µM (inactive) | 18.8 µM (inactive) | 12.7 µM (inactive) | > 100 µM (inactive) | 27.9 µM (inactive) | > 100 µM (inactive) | 16.8 µM (inactive) | 8 µM (inactive) | 6.11 µM (inactive) | 84.9 µM (inactive) | 8.67 µM (inactive) | 48.8 µM (inactive) | 7.87 µM (inactive) | 71.1 µM (inactive) | 36.9 µM (inactive) |  | 
13 | CC(C)(C)OC(=O)NCCc1cccc2c1oc1c(CCC(=O)O)cccc12 | > 100 µM (inactive) | > 100 µM (inactive) | > 100 µM (inactive) | > 100 µM (inactive) | > 100 µM (inactive) | > 100 µM (inactive) | > 100 µM (inactive) | > 100 µM (inactive) | > 100 µM (inactive) | > 100 µM (inactive) | > 100 µM (inactive) | > 100 µM (inactive) | > 100 µM (inactive) | > 100 µM (inactive) | > 100 µM (inactive) | > 100 µM (inactive) | > 100 µM (inactive) | > 100 µM (inactive) |  | 
14 | O=C(NCCCCNCCCNC(=O)OCc1ccccc1)OCc1ccccc1 | 69.5 µM (inactive) | 23.9 µM (inactive) | 21.2 µM (inactive) | 34.5 µM (inactive) | 43.4 µM (inactive) | 22.7 µM (inactive) | 19.5 µM (inactive) | 18 µM (inactive) | 69.7 µM (inactive) |  | 30.8 µM (inactive) | 21.8 µM (inactive) | 26.8 µM (inactive) | 80.2 µM (inactive) | 22.1 µM (inactive) | 31 µM (inactive) |  | > 100 µM (inactive) | 24.5 µM (inactive) | 
15 | C=C1CC2CC[C@@]34C[C@@H]5O[C@@H]6C(O[C@H]7CC[C@H](CC(=O)OC8[C@@H](C)C9OC%10C[C@]%11(C[C@@H]%12O[C@@]%13(C[C@@H](C)[C@@H]%12O%11)C[C@H](C)[C@@H]%11OC%12CC(C(O)CO)OC%12C[C@@H]%11O%13)OC%10CC9O[C@H]8C[C@H]8O[C@@H](CC[C@@H]1O2)C[C@@H](C)C8=C)O[C@@H]7[C@@H]6O3)C5O4 (stereo partly drawn) | 0.00229 µM (active) | 0.000718 µM (active) | 0.000213 µM (active) | 0.00103 µM (active) | 0.0038 µM (active) | 0.00236 µM (active) | 0.00225 µM (active) | 0.000357 µM (active) | 0.00166 µM (active) | 0.000904 µM (active) | 0.000755 µM (active) | 0.000453 µM (active) | 0.00249 µM (active) | 0.00471 µM (active) | 0.00248 µM (active) | 0.000977 µM (active) | 0.000469 µM (active) | 0.00104 µM (active) | 0.000148 µM (active) | 

Reference: ChEMBL document CHEMBL1201862, “PubChem BioAssay data set” (2004)
